The values below come from ChEMBL document CHEMBL1201862, “PubChem BioAssay data set” (2004).

Some test systems named below: CCRF-CEM; A498; NCI-H522; HCT-15; MOLT-4; HOP-62; EKVX; NCI-H226; OVCAR-5; HL-60; TK-10; LOX IMVI; SF-539; SK-MEL-28; OVCAR-3; SF-268.
What all share (test): NCI anticancer screen, dose series, 48 h

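Results reflect a 48-hour exposure of cells in 96-well plates to compound at five concentrations. Abbreviation: GI50, concentration required for 50% inhibition of growth.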 Calls of active or inactive are those of the source. Rule as the data show it: active = GI50 up to about 1.1 µM and inactive = higher.

As to `COC(=O)/C(=C/c1ccc(OC)cc1)C(C(=O)O)=C1CCCC1`, the GI50 is > 100 µM (inactive) in the assay with CCRF-CEM; > 100 µM (inactive) in the assay with A498; > 100 µM (inactive) in the assay with NCI-H522; above 100 µM in the assay with HCT-15; > 100 µM (inactive) with MOLT-4; > 100 µM (inactive) with HOP-62. For the same molecule, the GI50 in the assay on EKVX, in the assay on NCI-H226, with OVCAR-5, in the assay with HL-60, in the assay on TK-10 and in the assay with LOX IMVI was > 100 µM (inactive) each time. Moreover, the GI50 in the assay with SF-539 was > 100 µM (inactive).

As to `NC(CCc1nc(-c2ccccc2)cs1)C(=O)O` (centres undefined), the GI50 was > 100 µM (inactive) in the assay on CCRF-CEM; > 100 µM (inactive) in the assay with A498; > 100 µM (inactive) in the assay with NCI-H522; above 100 µM in the assay with HCT-15; > 100 µM (inactive) in the assay with MOLT-4; > 100 µM (inactive) in the assay on EKVX. The GI50 in the assay on NCI-H226, in the assay with SK-MEL-28, with HL-60, in the assay with TK-10, in the assay on OVCAR-3 and with LOX IMVI was > 100 µM (inactive) in each case. For the same molecule, the GI50 with SF-539 is > 100 µM (inactive).

Regarding `CCOC(=O)C1(C/C=C(/C)Cl)CCCC1=O` (centres undefined), the GI50 in the assay on CCRF-CEM was > 100 µM (inactive); in the assay on A498 it was > 100 µM (inactive); in the assay on NCI-H522, > 100 µM (inactive); with HCT-15 it was 26.7 µM; in the assay with MOLT-4 it was > 100 µM (inactive); in the assay on HOP-62 it was > 100 µM (inactive). Also, the GI50 with EKVX was > 100 µM (inactive); in the assay with NCI-H226 it was > 100 µM (inactive); in the assay with OVCAR-5, > 100 µM (inactive); in the assay on SK-MEL-28 it was > 100 µM (inactive); with HL-60 it was 86.5 µM (inactive); in the assay on SF-268, > 100 µM (inactive). For the same molecule, the GI50 in the assay with TK-10, in the assay on OVCAR-3, in the assay with LOX IMVI and with SF-539 was > 100 µM (inactive) in each case.

For the molecule `CC1CC(C2=CC=CCS2)=Nc2ccccc2S1` (centres undefined), the GI50 in the assay with CCRF-CEM is > 100 µM (inactive); in the assay with A498, > 100 µM (inactive); with NCI-H522 it was 92.3 µM (inactive); in the assay on HCT-15, above 100 µM; with MOLT-4, > 100 µM (inactive); with HOP-62 it was > 100 µM (inactive). Moreover, the GI50 in the assay with EKVX, in the assay on OVCAR-5, with SK-MEL-28, in the assay with HL-60, with SF-268 and in the assay on TK-10 was > 100 µM (inactive) throughout. In addition, the GI50 with OVCAR-3, in the assay with LOX IMVI and with SF-539 was > 100 µM (inactive) each time.

As for `COc1cc2c(cc1OC)C1C=NC(C(=O)O)(C2)c2ccccc21` (centres undefined), the GI50 is 52.5 µM (inactive) in the assay on CCRF-CEM; > 100 µM (inactive) with A498; > 100 µM (inactive) with NCI-H522; above 100 µM in the assay on HCT-15; > 100 µM (inactive) with MOLT-4; > 100 µM (inactive) with HOP-62. Moreover, the GI50 is > 100 µM (inactive) in the assay on EKVX; > 100 µM (inactive) in the assay on NCI-H226; > 100 µM (inactive) in the assay with OVCAR-5; 26.4 µM (inactive) with HL-60; > 100 µM (inactive) with SF-268; > 100 µM (inactive) in the assay on TK-10. In addition, the GI50 in the assay on OVCAR-3, in the assay with LOX IMVI and with SF-539 was > 100 µM (inactive) throughout.

Consider `COC(=O)C(CCS(=O)(=O)CC(=O)C(=O)Nc1cccc(C(C)=O)c1)C(=O)OC`, for which the GI50 in the assay with CCRF-CEM is > 43.1 µM (inactive); in the assay on A498, > 100 µM (inactive); in the assay on NCI-H522, > 92.3 µM (inactive); with HCT-15 it was above 72.1 µM; with MOLT-4, > 100 µM (inactive); with HOP-62, > 100 µM (inactive). Moreover, the GI50 in the assay with EKVX was > 100 µM (inactive); in the assay on NCI-H226 it was > 100 µM (inactive); in the assay on OVCAR-5 it was > 100 µM (inactive); in the assay with SK-MEL-28, > 91.4 µM (inactive); in the assay with HL-60, > 100 µM (inactive); in the assay with SF-268, 0.586 µM (active). In addition, the GI50 in the assay with TK-10 is > 100 µM (inactive); with OVCAR-3 it was > 100 µM (inactive); in the assay on LOX IMVI, > 61.9 µM (inactive); in the assay with SF-539, > 100 µM (inactive).

As for `NC1=NN(c2ccccc2)C(=O)C1/C(=N\NC(=O)c1cc2ccccc2cc1O)C(=O)Nc1nc([N+](=O)[O-])cs1` (centres undefined), the GI50 in the assay with CCRF-CEM is 17.3 µM (inactive); with A498, 41.2 µM (inactive); in the assay on NCI-H522 it was 19.1 µM (inactive); in the assay with HCT-15, 24.3 µM; in the assay on MOLT-4, 3.6 µM (inactive); with HOP-62, 54 µM (inactive). Also, the GI50 in the assay on EKVX was 47.3 µM (inactive); with NCI-H226, 49.1 µM (inactive); in the assay with OVCAR-5 it was 44.9 µM (inactive); in the assay with SK-MEL-28 it was 42.7 µM (inactive); with HL-60 it was 8.81 µM (inactive); in the assay on SF-268, 16.7 µM (inactive). Further, the GI50 in the assay with TK-10 was 38.5 µM (inactive); with OVCAR-3, 30.1 µM (inactive); with LOX IMVI it was 18.4 µM (inactive); in the assay with SF-539 it was 23.9 µM (inactive).

Take `CC(C)N(C(=O)C12C3C4C5C3C1(C(=O)N(C(C)C)C(C)C)C5C42)C(C)C` (centres undefined): the GI50 with CCRF-CEM is > 47.1 µM (inactive); with A498, > 100 µM (inactive); with NCI-H522, > 100 µM (inactive); in the assay with HCT-15, above 71.8 µM; with MOLT-4, 68.9 µM (inactive); with HOP-62 it was > 100 µM (inactive). Moreover, the GI50 is > 100 µM (inactive) with EKVX; > 100 µM (inactive) in the assay with NCI-H226; > 100 µM (inactive) in the assay with OVCAR-5; > 100 µM (inactive) with SK-MEL-28; > 37.6 µM (inactive) in the assay on HL-60; > 100 µM (inactive) with SF-268. The GI50 with TK-10 is > 100 µM (inactive); in the assay with OVCAR-3 it was > 100 µM (inactive); with LOX IMVI it was > 46.8 µM (inactive); in the assay on SF-539 it was > 100 µM (inactive).

As for `CCCc1cc(OC(=O)c2c(O)cc(OC)cc2CCC)cc(O)c1C(=O)O`, the GI50 in the assay with CCRF-CEM was 32.8 µM (inactive); in the assay with A498 it was 28.9 µM (inactive); with NCI-H522, 16 µM (inactive); in the assay with MOLT-4, 29.5 µM (inactive); with HOP-62 it was 16.6 µM (inactive); in the assay on EKVX, 26.2 µM (inactive). Besides, the GI50 is 35 µM (inactive) with OVCAR-5; 28.2 µM (inactive) in the assay with SK-MEL-28; 23 µM (inactive) with HL-60; 48.5 µM (inactive) with TK-10; 20.6 µM (inactive) in the assay on OVCAR-3; 23.8 µM (inactive) with LOX IMVI. For the same molecule, the GI50 with SF-539 was 18 µM (inactive).

In the case of `N#C/C(=C\c1cccc(Cl)c1Cl)c1ccccc1`, the GI50 in the assay with CCRF-CEM was 39.3 µM (inactive); in the assay on A498, 34.6 µM (inactive); with NCI-H522 it was 52.8 µM (inactive); with HCT-15, above 57.4 µM; with MOLT-4, > 100 µM (inactive); in the assay on HOP-62 it was 37 µM (inactive). Moreover, the GI50 is > 69.5 µM (inactive) with EKVX; 56.2 µM (inactive) in the assay with NCI-H226; > 100 µM (inactive) with OVCAR-5; > 100 µM (inactive) in the assay on SK-MEL-28; > 100 µM (inactive) in the assay with HL-60; 58.1 µM (inactive) in the assay on SF-268. Further, the GI50 is 57.3 µM (inactive) in the assay on TK-10, 46.9 µM (inactive) in the assay on OVCAR-3, > 75.9 µM (inactive) with LOX IMVI and 35.1 µM (inactive) with SF-539.
